Results on 23 molecules are retold here after patent US20130261077A1 (priority 2012, published 2013).

Structures are written as SMILES.

T1 sequence (P08191 22-177): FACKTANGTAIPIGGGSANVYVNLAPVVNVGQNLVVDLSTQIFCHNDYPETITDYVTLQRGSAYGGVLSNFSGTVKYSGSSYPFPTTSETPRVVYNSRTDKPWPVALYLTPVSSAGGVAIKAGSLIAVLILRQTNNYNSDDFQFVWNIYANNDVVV

This assay concerns the target T1, FimH-CRD (Escherichia coli, UniProt P08191).
T1 construct: The first 177 amino acids of the FimH protein; thrombin tag (printed as 'fusion protein with thrombin') (cleaved yes); made in house; host or cells: bacteria (pET21b plasmid)
Put plainly: Competitive binding assay by fluorescence polarization, assay 1 (compounds prepared by manual serial dilution). How it is done:
The first 177 amino acids of the FimH protein were expressed as a fusion protein with thrombin in a pET21b plasmid in bacteria. This FimH protein sequence contains the carbohydrate recognition domain (CRD) and shall be termed FimH-CRD. Following bacterial expression of the protein, the FimH-CRD protein was purified to homogeneity and the thrombin tag removed by protease cleavage. A competitive binding assay by fluorescence polarization was performed using 5 nM of the Alexa 647 mannoside probe and 60 nM of the FimH-CRD. The samples are assayed in a low volume 384 well microtiter plate in a final volume of 20 μl. The final assay buffer conditions are the following, 50 mM Tris-Cl, ph 7.0, 100 mM NaCl, 1 mM EDTA, 5 mM β-mercaptoethanol, 0.05% BSA and 2.5% DMSO. Two assays are performed for FimH, termed assay 1 or assay 2. The assay conditions are the same for both assays except the following: assay 1 has compounds prepared by manual dilution in a serial dilution factor with 12-point dose response while assay 2 has compounds prepared by a robotics system also through a serial dilution factor (12 point dose response) and initially prepared in duplicate in 384 well-Corning polypropylene round bottom plates. The assay 2 plates have compound which is then frozen and must be thawed prior to use. Initially the Alexa 647 probe and the FimH-CRD are added to the assay buffer and then 0.5 μl of test compound (assay 1 or 2) between 0.4 nM to 75 μM final concentration are added (12 point titration with 3-fold serial dilution). Control wells for the Alexa 647 probe are prepared with the same conditions except for the addition of the FimH-CRD protein. Plates are then incubated for 5 hrs at room temperature in the dark and under humid conditions to prevent drying. Plates are read using the SpectraMax Paradigm multi-mode plate reader and the appropriate fluorescent polarization detection cartridge (Alexa-647).
Alexa 647 mannoside probe is prepared using the similar procedure reported for FAM mannoside (Han, Z. et. al., 2010, J. Med. Chem., 53, 4779) and is described in the scheme below.
To a blue colored stirred solution of (2S,3S,4S,5S,6R)-2-(4-aminobutoxy)-6-(hydroxymethyl)tetrahydropyran-3,4,5-triol (2.21 mg, 0.009 mmol) and the (2E)-2-[(2E,4E)-5-[3,3-dimethyl-5-sulfonato-1-(3-sulfonatopropyl)indol-1-ium-2-yl]penta-2,4-dienylidene]-3-[6-(2,5-dioxopyrrolidin-1-yl)oxy-6-oxo-hexyl]-3-methyl-1-(3-sulfonatopropyl)indoline-5-sulfonate (Potassium Ion (3)) (4.9 mg, 0.0044 mmol) in DMF (44 μL) is added Et3N (5.4 mg, 7.0 μL, 0.053 mmol) at RT. The solution is stirred at room temperature over night, concentrated, dissolved in water and purified on 12 g C-18 silica gel cartridge on Isolera system using acetonitrile in water (0 to 40%, 10 CV) and followed by lyophilization to afford Alexa 647 mannoside probe (3.3 mg, 34%) as deep blue solid.
The Kd values of the compounds are determined from dose response curves using twelve concentrations per compound in duplicate. Curves are fitted to data points using Fluorescence Polarization competitive displacement analysis, and Kds are interpolated from the resulting curves using GraphPad Prism software, version […] (GraphPad software Inc., San Diego, Calif., USA).
Background: Polarisation of emitted light reports the rotation of a fluorescent probe.
Turning to `OC[C@H]1O[C@H](c2cccc(O)c2)[C@@H](O)[C@@H](O)[C@@H]1O` [Compound 1, (2R,3S,4R,5S,6R)-2-(hydroxymethyl)-6-(3-hydroxyphenyl)tetrahydropyran-3,4,5-triol], the IC50 worked out at 53 nM and the affinity, expressed as Kd, was 12.3 ± 5.1 nM.
The like results for `CNC(=O)c1ccc(-c2cccc([C@H]3O[C@H](CO)[C@@H](O)[C@H](O)[C@@H]3O)c2)cc1` [Compound 2, N-methyl-4-[3-[(2R,3S,4R,5S,6R)-3,4,5-trihydroxy-6-(hydroxymethyl)tetrahydropyran-2-yl]phenyl]benzamide] were, in that order, 29 nM and less than 5 nM.
On the same counts, the results for `CNC(=O)c1ccc(Oc2cccc([C@H]3O[C@H](CO)[C@@H](O)[C@H](O)[C@@H]3O)c2)cc1` [Compound 3, N-methyl-4-[3-[(2R,3S,4R,5S,6R)-3,4,5-trihydroxy-6-(hydroxymethyl)tetrahydropyran-2-yl]phenoxy]benzamide] are 39 nM and 7.2 ± 1.1 nM.
The like results for `CNC(=O)c1cccc(Oc2cccc([C@H]3O[C@H](CO)[C@@H](O)[C@H](O)[C@@H]3O)c2)c1` [Compound 5, N-methyl-3-[3-[(2R,3S,4R,5S,6R)-3,4,5-trihydroxy-6-(hydroxymethyl)tetrahydropyran-2-yl]phenoxy]benzamide] were, in that order, 18 nM and less than 5 nM.
`Cc1ccc(-c2cccc([C@H]3O[C@H](CO)[C@@H](O)[C@H](O)[C@@H]3O)c2)cc1` [Compound 6, (2R,3S,4R,5S,6R)-2-(hydroxymethyl)-6-(4′-methyl-[1,1′-biphenyl]-3-yl)tetrahydro-2H-pyran-3,4,5-triol] yielded an IC50 of 87 nM and a Kd of 13.7 ± 7.7 nM.
The like results for `CC(=O)Nc1cccc(-c2cccc([C@H]3O[C@H](CO)[C@@H](O)[C@H](O)[C@@H]3O)c2)c1` [Compound 7, N-[3-[3-[(2R,3S,4R,5S,6R)-3,4,5-trihydroxy-6-(hydroxymethyl)tetrahydropyran-2-yl]phenyl]phenyl]acetamide] were, in that order, 70 nM and 14.3 ± 9.1 nM.
The like results for `OC[C@H]1O[C@H](c2cccc(-c3ccsc3)c2)[C@@H](O)[C@@H](O)[C@@H]1O` [Compound 8, (2R,3S,4R,5S,6R)-2-(hydroxymethyl)-6-[3-(3-thienyl)phenyl]tetrahydropyran-3,4,5-triol] were, in that order, 155 nM and 40.1 ± 17.1 nM.
The like results for `OC[C@H]1O[C@H](c2cccc(-c3cccnc3)c2)[C@@H](O)[C@@H](O)[C@@H]1O` [Compound 9, (2R,3S,4R,5S,6R)-2-(hydroxymethyl)-6-[3-(3-pyridyl)phenyl]tetrahydropyran-3,4,5-triol] were, in that order, 163 nM and 28.5 ± 23.7 nM.
`OC[C@H]1O[C@H](c2cccc(-c3ccc4c(c3)OCO4)c2)[C@@H](O)[C@@H](O)[C@@H]1O` [Compound 11, (2R,3S,4R,5S,6R)-2-[3-(1,3-benzodioxol-5-yl)phenyl]-6-(hydroxymethyl)tetrahydropyran-3,4,5-triol] yielded an IC50 of 88 nM and a dissociation constant Kd of 11.9 ± 7.3 nM.
The like results for `OCc1ccccc1-c1cccc([C@H]2O[C@H](CO)[C@@H](O)[C@H](O)[C@@H]2O)c1` [Compound 13, (2R,3S,4R,5S,6R)-2-(hydroxymethyl)-6-(2′-(hydroxymethyl)-[1,1′-biphenyl]-3-yl)tetrahydro-2H-pyran-3,4,5-triol] were, in that order, 195 nM and 39.9 ± 23.6 nM.
The like results for `CN(C)Cc1ccccc1-c1cccc([C@H]2O[C@H](CO)[C@@H](O)[C@H](O)[C@@H]2O)c1` [Compound 14, (2R,3S,4R,5S,6R)-2-(2′-((dimethylamino)methyl)-[1,1′-biphenyl]-3-yl)-6-(hydroxymethyl)tetrahydro-2H-pyran-3,4,5-triol] were, in that order, 551 nM and 77.8 ± 70.4 nM.
`OC[C@H]1O[C@H](c2cccc(-c3ccc4[nH]ccc4c3)c2)[C@@H](O)[C@@H](O)[C@@H]1O` [Compound 15]: the IC50 stood at 306 nM and the Kd is 48.2 ± 47.7 nM.
Turning to `Nc1cccc(-c2cccc([C@H]3O[C@H](CO)[C@@H](O)[C@H](O)[C@@H]3O)c2)c1` [Compound 16, (2R,3S,4R,5S,6R)-2-[3-(3-aminophenyl)phenyl]-6-(hydroxymethyl)tetrahydropyran-3,4,5-triol], the IC50 was determined as 247 nM and the Kd was 37 ± 33.7 nM.
Molecule `OC[C@H]1O[C@H](c2cccc(-c3ccc4cc(O)ccc4c3)c2)[C@@H](O)[C@@H](O)[C@@H]1O` [Compound 17, (2R,3S,4R,5S,6R)-2-(hydroxymethyl)-6-[3-(6-hydroxy-2-naphthyl)phenyl]tetrahydropyran-3,4,5-triol] had an IC50 of 48 nM and a Kd of 8.6 ± 2.5 nM.
For `Cn1nc(C(F)(F)F)cc1-c1cccc([C@H]2O[C@H](CO)[C@@H](O)[C@H](O)[C@@H]2O)c1` [Compound 18, (2R,3S,4R,5S,6R)-2-(hydroxymethyl)-6-(3-(1-methyl-3-(trifluoromethyl)-1H-pyrazol-5-yl)phenyl)tetrahydro-2H-pyran-3,4,5-triol], the IC50 was determined as 160 nM and the dissociation constant (Kd) was determined as 33.7 ± 15.8 nM.
The like results for `CCCOc1ccc(F)c(-c2cccc([C@H]3O[C@H](CO)[C@@H](O)[C@H](O)[C@@H]3O)c2)c1` [Compound 19] were, in that order, 52 nM and 6.2 ± 1.2 nM.
In turn, `OC[C@H]1O[C@H](c2cccc(-c3ccc4c(c3)OCCO4)c2)[C@@H](O)[C@@H](O)[C@@H]1O` [Compound 20, (2R,3S,4R,5S,6R)-2-(3-(2,3-dihydrobenzo[b][1,4]dioxin-6-yl)phenyl)-6-(hydroxymethyl)tetrahydro-2H-pyran-3,4,5-triol] came in with an IC50 of 55 nM and a Kd of 7.1 ± 2.4 nM.
The like results for `CS(=O)(=O)c1ccc(-c2cccc([C@H]3O[C@H](CO)[C@@H](O)[C@H](O)[C@@H]3O)c2)cc1` [Compound 21] were, in that order, 92 nM and 12.3 ± 5.1 nM.
Regarding `O=C(Nc1ccccc1)c1cccc([C@H]2O[C@H](CO)[C@@H](O)[C@H](O)[C@@H]2O)c1` [Compound 23, N-phenyl-3-[(2R,3S,4R,5S,6R)-3,4,5-trihydroxy-6-(hydroxymethyl)tetrahydropyran-2-yl]benzamide], the IC50 amounted to 16 nM and the Kd was found to be 38.4 ± 23.6 nM.
The like results for `Cc1cc(NC(=O)c2cccc([C@H]3O[C@H](CO)[C@@H](O)[C@H](O)[C@@H]3O)c2)n(Cc2ccccc2)n1` [Compound 24, N-(1-benzyl-3-methyl-1H-pyrazol-5-yl)-3-((2R,3S,4R,5S,6R)-3,4,5-trihydroxy-6-(hydroxymethyl)tetrahydro-2H-pyran-2-yl)benzamide] were, in that order, 243 nM and 56.7 ± 0.2 nM.
The like results for `Cc1nnc(NC(=O)c2cccc([C@H]3O[C@H](CO)[C@@H](O)[C@H](O)[C@@H]3O)c2)s1` [Compound 25, N-(5-methyl-1,3,4-thiadiazol-2-yl)-3-((2R,3S,4R,5S,6R)-3,4,5-trihydroxy-6-(hydroxymethyl)tetrahydro-2H-pyran-2-yl)benzamide] were, in that order, 36 nM and 7 ± 0.5 nM.
The like results for `O=C(Nc1ccc2ncccc2c1)c1cccc([C@H]2O[C@H](CO)[C@@H](O)[C@H](O)[C@@H]2O)c1` [Compound 26, N-(quinolin-6-yl)-3-((2R,3S,4R,5S,6R)-3,4,5-trihydroxy-6-(hydroxymethyl)tetrahydro-2H-pyran-2-yl)benzamide] were, in that order, 100 nM and 16.8 ± 7.8 nM.
With `O=C(Nc1ccc2[nH]ccc2c1)c1cccc([C@H]2O[C@H](CO)[C@@H](O)[C@H](O)[C@@H]2O)c1` [Compound 27, N-(1H-indol-5-yl)-3-((2R,3S,4R,5S,6R)-3,4,5-trihydroxy-6-(hydroxymethyl)tetrahydro-2H-pyran-2-yl)benzamide], the IC50 amounted to 138 nM and the Kd worked out at 37 ± 3.1 nM.

The term IC50 denotes the midpoint of a concentration-inhibition curve. A higher IC50 goes with lower potency. One may read the Kd as the constant that tells how readily two partners part at equilibrium. Higher therefore signals weaker binding.
